Laboratory results reported in patent publication US20170312681A1, “PROCESS AND APPARATUS FOR SEPARATING ENTRAINED AMINES FROM A GAS STREAM” (Carbonoro B.V., priority 2014, published 2017).

Assay: amine content of the aqueous phase after heat-induced phase separation of an aqueous MCA/DMCA mixture
Details: 3 M MCA:DMCA 1:3 wt./wt. in water
Protocol: The phases were separated and the aqueous phase was analysed for determining the amine content.

In the case of `CNC1CCCCC1` [MCA, N-methylcyclohexylamine], the “MCA in aqueous phase” value (heated 24 h at 40 ° C.) is reported as 6940 mg/L, the “MCA in aqueous phase” value (heated 24 h at 50 ° C.) is reported as 5630 mg/L and the “MCA in aqueous phase” value (heated 24 h at 60 ° C.) is reported as 5090 mg/L. For the same compound, the “MCA in aqueous phase” value (heated 24 h at 70 ° C.) was 4520 mg/L.
